This is an account of results in patent US20250197343A1, “CATIONIC LIPID” (TAKEDA PHARMACEUTICAL COMPANY LIMITED, priority 2021, published 2025).

Data set [1] is described as follows: Rate of encapsulation of Luc DNA in lipid nanoparticles. In kind it is physicochemical. The arrangement: unit: %. The following applies: Luc DNA-encapsulated lipid nanoparticles; cationic lipid:DPPC:cholesterol:GM-020=60:10.6:28:1.4 molar ratio. An excerpt: The concentration and rate of encapsulation of the nucleic acid (e.g., siRNA or mRNA) in the composition of the present invention can be measured by a known approach. For example, the nucleic acid is fluorescently labeled using Quant-iT™ RiboGreen® (Invitrogen Corp.), and the fluorescence intensity can be measured to determine the concentration and the rate of encapsulation. The concentration of the nucleic acid in the composition can be calculated using a calibration curve prepared from aqueous nucleic acid solutions having known concentrations. The rate of encapsulation can be calculated on the basis of the difference in fluorescence intensity between the presence and absence of addition of Triton-X 100 (surfactant for disrupting the lipid particle). The concentration of the nucleic acid in the composition refers to the total concentration of a nucleic acid encapsulated in the lipid particle and an unencapsulated nucleic acid. The rate of encapsulation refers to the ratio of the nucleic acid encapsulated in the lipid particle to all nucleic acids in the composition.
(§1) A lipid mixture containing a cationic lipid of the Examples shown in Table 2 (cationic lipid:DPPC:cholesterol:GM-020=60:10.6:28:1.4, molar ratio) was dissolved in 90% of EtOH and 10% of water to obtain a 15.0 mg/ml lipid solution. Luciferase (luc) DNA (manufactured by Nature Technology Corp.) was dissolved in a 10 mM MES buffer solution (pH 5.5) to obtain a 0.3 mg/ml nucleic acid solution. The obtained lipid solution and nucleic acid solution were mixed at a flow rate ratio of 3 ml/min:6 ml/min at room temperature using NanoAssemblr (manufactured by Precision NanoSystems Inc.) to obtain a dispersion containing Luc DNA-encapsulated lipid nanoparticles. The obtained dispersion was dialyzed against water at room temperature for 1 hour and against PBS at 4° C. for 23 hours using Slyde-A-Lyzer (molecular weight cutoff: 20 K, Thermo Fischer Scientific Inc.). Subsequently, the dialysate was filtered through a 0.2 µm syringe filter (Iwaki). A 60% solution of sucrose in PBS was added thereto, and the mixture was preserved as a 20% solution of sucrose in PBS at −80° C. Analysis results of particle size and rate of encapsulation of the Luc DNA-encapsulated lipid nanoparticles are also shown in Table 2.

For data set [2], the system named is ICrl:CD1 (ICR) mice. Put plainly: Mouse bioluminescence imaging evaluation (Test Example 1). The format is in vivo. The following applies: Luc DNA-encapsulated lipid nanoparticles 10 mL/kg i.v. to ICR mice; IVIS total flux 15 minutes after luciferin i.p. The procedure:
The Luc DNA-encapsulated lipid nanopatricles obtained in the aforesaid Production Example were intravenously administered to the tails of ICrl:CD1 (ICR) mice (10 mL/kg i.v.). After administration of the lipid particles, luciferin (15 mg/mL) was administered to the mice (10 mL/kg i.p.), which were loaded in an IVIS (in vivo imaging system) apparatus (manufactured by PerkinElmer, Inc.) under isoflurane inhalation anesthesia. Luminescence images of the mice were taken ventrally (in a supine position) 15 minutes after luciferin administration. The luminescence was digitized with the software of IVIS, followed by evaluation using the value of total flux. Higher luminescence means strong expression of the protein encoded by the DNA encapsulate in the lipid particle. In Table 2, higher luminescence is indicated on a scale of A, B and C in order. A represents luminescence of 3.0E+07 or more, B represents luminescence of 1.0E+0.7 or more and less than 3.0E+07, and C represents luminescence of less than 1.0E+07.

Data set [3] in a line: Particle size of Luc DNA-encapsulated lipid nanoparticles. The format is physicochemical. The following applies: cationic lipid:DPPC:cholesterol:GM-020=60:10.6:28:1.4 molar ratio.
Description: The particle size of the lipid particle (in the composition) can be measured by a known approach. For example, the particle size can be calculated as a Z-average particle size by the cumulant analysis of an autocorrelation function using a particle size measurement apparatus Zetasizer Nano ZS (Malvern Instruments) based on a dynamic light scattering measurement technique. The particle size (average particle size) of the lipid particle (in the composition) is, for example, 10 to 200 nm, preferably 60 to 170 nm.
as §1

Take `CCCCCCCOC(=O)CCCCC(=O)OCC(COC(=O)CCCN(C)C)(COC(=O)CC(CCCCC)CCCCC)COC(=O)CC(CCCCC)CCCCC` [Example 16, 2-({[4-(Dimethylamino)butanoyl]oxy}methyl)-3-[(3-pentyloctanoyl)oxy]-2-{[(3-pentyloctanoyl)oxy]methyl}propyl heptyl hexanedioate]: in data set [1], the Rate of encapsulation is given as 97.0. In addition, the Luminescence entry in data set [2] is “B (B represents luminescence of 1.0E+0.7 or more and less than 3.0E+07)”. Moreover, the “Particle size (nm)” value in data set [3] is 98.4 nm.
With `CCCCCCCCCCOC(=O)CC(=O)OCC(COC(=O)CCCN(C)C)(COC(=O)CC(=O)OCCCCCCCCCC)COC(=O)CC(CCCCC)CCCCC` [Example 71, 1,1′-Didecyl 3,3′-[2-({[4-(dimethylamino)butanoyl]oxy}methyl)-2-{[(3-pentyloctanoyl)oxy]methyl}propane-1,3-diyl] dipropanedioate], the Rate of encapsulation in data set [1] is 92.6. Moreover, the Luminescence entry in data set [2] is on record as “A (A represents luminescence of 3.0E+07 or more)”. Besides, the “Particle size (nm)” value in data set [3] was found to be 97.2 nm.
Turning to `CCCCCCCCCCOC(=O)CCCCC(=O)OCC(COC(=O)CCCCC(=O)OCCCCCCCCCC)(COC(=O)CCCCC(=O)OCCCCCCCCCC)COC(=O)CCCN(C)C` [Example 42, 1,1′-Didecyl 6,6′-[2-({[6-(dexyloxy)-6-oxohexanoyl]oxy}methyl)-2-({[4-(dimethylamino)butanoyl]oxy}methyl)propane-1,3-diyl] dihexanedioate], the Rate of encapsulation in data set [1] was found to be 86.2. Also, the Luminescence result in data set [2] is recorded as “C (C represents luminescence of less than 1.0E+07)”. The “Particle size (nm)” value in data set [3] is listed as 114.5 nm.
The matching figures for `CCCCCCOC(=O)CCCCCCCC(=O)OCC(COC(=O)CCCN(C)C)(COC(=O)CC(CCCCC)CCCCC)COC(=O)CC(CCCCC)CCCCC` [Example 63, 2-({[4-(Dimethylamino)butanoyl]oxy}methyl)-3-[(3-pentyloctanoyl)oxy]-2-{[(3-pentyloctanoyl)oxy]methyl}propyl hexyl nonanedioate]: 98.2, “C (C represents luminescence of less than 1.0E+07)” and 90.9 nm.
As for `CCCCCC(CCCCC)CC(=O)OCC(COC(=O)CCCCCCCC(=O)OC)(COC(=O)CCCN(C)C)COC(=O)CC(CCCCC)CCCCC` [Example 36, 2-({[4-(Dimethylamino)butanoyl]oxy}methyl)-3-[(3-pentyloctanoyl)oxy]-2-{[(3-pentyloctanoyl)oxy]methyl}propyl methyl nonanedioate], the Rate of encapsulation in data set [1] was determined as 95.1. Moreover, the Luminescence entry in data set [2] was “B (B represents luminescence of 1.0E+0.7 or more and less than 3.0E+07)”. Also, in data set [3], the “Particle size (nm)” value stood at 127.9 nm.
Turning to `CCCCCC(CCCCC)CC(=O)OCC(COC(=O)CCCCCCCC(=O)OC)(COC(=O)CCCCCCCC(=O)OC)COC(=O)CCCN(C)C` [Example 35, 1,1′-[2-({[4-(Dimethylamino)butanoyl]oxy}methyl)-2-{[(3-pentyloctanoyl)oxy]methyl}propane-1,3-diyl] 9,9′-dimethyl dinonanedioate], the Rate of encapsulation in data set [1] worked out at 96.1. Also, in data set [2], the Luminescence result was “B (B represents luminescence of 1.0E+0.7 or more and less than 3.0E+07)”. For the same molecule, the “Particle size (nm)” value in data set [3] came to 95.1 nm.
As for `CCCCCCCCC(C(=O)OC)C(=O)OCC(COC(=O)CCCN(CC)C(C)C)(COC(=O)CC(CCCCC)CCCCC)COC(=O)C(CCCCCCCC)C(=O)OC` (stereo not drawn) [Example 133, 1,1′-(2-[({4-[Ethyl(propan-2-yl)amino]butanoyl}oxy)methyl]-2-{[(3-pentyloctanoyl)oxy]methyl}propane-1,3-diyl) 3,3′-dimethyl bis(octylpropanedioate)], the Rate of encapsulation in data set [1] is 95.3. The Luminescence result in data set [2] is given as “C (C represents luminescence of less than 1.0E+07)”. Further, in data set [3], the “Particle size (nm)” value came to 133.4 nm.
`CCCCCC(CCCCC)CC(=O)OCC(COC(=O)CCCCCCCC(=O)OCCCC)(COC(=O)CCCN(C)C)COC(=O)CC(CCCCC)CCCCC` [Example 34, Butyl 2-({[4-(dimethylamino)butanoyl]oxy}methyl)-3-[(3-pentyloctanoyl)oxy]-2-{[(3-pentyloctanoyl)oxy]methyl}propyl nonanedioate]: in data set [1], the Rate of encapsulation was determined as 52.7. In addition, the Luminescence result in data set [2] is “C (C represents luminescence of less than 1.0E+07)”. Further, the “Particle size (nm)” value in data set [3] is reported as 184.3 nm.
The matching figures for `CCCCCCCOC(=O)CCCCC(=O)OCC(COC(=O)CCCCC(=O)OCCCCCCC)(COC(=O)CCCN(C)CCCO)COC(=O)CC(CCCCC)CCCCC` [Example 94, 1,1′-Diheptyl 6,6′-(2-[({4-[(3-hydroxypropyl)(methyl)amino]butanoyl}oxy)methyl]-2-{[(3-pentyloctanoyl)oxy]methyl}propane-1,3-diyl) dihexanedioate]: 93.0, “C (C represents luminescence of less than 1.0E+07)” and 129.4 nm.
The corresponding values for `CCCCCOC(=O)CCCCCCCC(=O)OCC(COC(=O)CCCCCCCC(=O)OCCCCC)(COC(=O)CCCCCCCC(=O)OCCCCC)COC(=O)CCCN(C)C` [Example 55, 1,1′-[2-({[4-(Dimethylamino)butanoyl]oxy}methyl)-2-({[9-oxo-9-(pentyloxy)nonanoyl]oxy}methyl)propane-1,3-diyl] 9,9′-dipentyl dinonanedioate] are 79.7, “C (C represents luminescence of less than 1.0E+07)” and 186.2 nm.
In the case of `CCCCCCCOC(=O)CCCCCCCC(=O)OCC(COC(=O)CCCCCCCC(=O)OCCCCCCC)(COC(=O)CCCN(C)C)COC(=O)CC(CCCCC)CCCCC` [Example 60, 1,1′-[2-({[4-(Dimethylamino)butanoyl]oxy}methyl)-2-{[(3-pentyloctanoyl)oxy]methyl}propane-1,3-diyl] 9,9′-diheptyl dinonanedioate], the Rate of encapsulation in data set [1] is given as 77.6. Moreover, the Luminescence result in data set [2] is “A (A represents luminescence of 3.0E+07 or more)”. Also, the “Particle size (nm)” value in data set [3] is listed as 143.9 nm.
`CCCCCCOC(=O)CCCCCC(=O)OCC(COC(=O)CCCCCC(=O)OCCCCCC)(COC(=O)CCCN(CC)C(C)C)COC(=O)CC(CCCCC)CCCCC` [Example 102, 1,1′-(2-[({4-[Ethyl(propan-2-yl)amino]butanoyl}oxy)methyl]-2-{[(3-pentyloctanoyl)oxy]methyl}propane-1,3-diyl) 7,7′-dihexyl diheptanedioate]: the Rate of encapsulation in data set [1] turned out to be 91.8. Moreover, in data set [2], the Luminescence entry is “B (B represents luminescence of 1.0E+0.7 or more and less than 3.0E+07)”. For the same molecule, the “Particle size (nm)” value in data set [3] was found to be 139.8 nm.
For the molecule `CCCCCC(CCCCC)CC(=O)OCC(COC(=O)CCCCCCCCCCC(=O)OC)(COC(=O)CCCCCCCCCCC(=O)OC)COC(=O)CCCN(C)C` [Example 77, 1,1′-[2-({[4-(Dimethylamino)butanoyl]oxy}methyl)-2-{[(3-pentyloctanoyl)oxy]methyl}propane-1,3-diyl] 12,12′-dimethyl didodecanedioate], in data set [1], the Rate of encapsulation came out at 73.5. The Luminescence entry in data set [2] was “B (B represents luminescence of 1.0E+0.7 or more and less than 3.0E+07)”. In addition, in data set [3], the “Particle size (nm)” value amounted to 128.7 nm.
